Experimental data published in US20190328749A1, “FORMULATION OF LONG-ACTING LEVONORGESTREL BUTANOATE INJECTABLE DEPOT SUSPENSION” (Eastern Virginia Medical School, priority 2016, published 2019).
Where “and” joins values, the source holds several entries; their conditions need not be identical. Identical values can stand only once.

Legend:
[1] = test system: ovulation; assay: monkey study, time to return to ovulation / duration of action; format: in vivo, non-human primates
[2] = uniformity of LB particle size distribution and concentration after dispersion/mixing and homogenization; format: physicochemical; details: post LB dispersion in Part II & mixing with Part I
[3] = particle size distribution of micronized LB drug substance (dry milled, wet milled, spray dried); format: physicochemical
Description: FIG. 3 and FIG. 4 show typical particle size distributions and photomicrographs of LB drug substance prepared by dry milling. The dry milled LB powder was dispersed in 1% polysorbate 20 and three replicate measurements of the particle size distribution were made.
FIG. 5 and FIG. 6 show typical particle size distributions and photomicrographs of LB drug substance prepared by wet milling. After wet milling for 15 minutes, the LB suspension was sampled and three replicate measurements of the particle size distribution were made.
FIG. 7 and FIG. 8 show typical particle size distributions and photomicrographs of LB drug substance prepared by spray drying processes. The spray dried LB powder was dispersed in 0.5% polysorbate 80 and three replicate measurements of the particle size distribution were made.

[4] = test system: ovulation; details: women, single dose of 50 mg, micronized aqueous suspension, injected; cited from earlier work
[5] = dry milled LB powder dispersed in 1% polysorbate 20, replicate runs
[6] = spray dried LB powder dispersed in 0.5% polysorbate 80, replicate runs
[7] = wet milled 15 minutes, LB suspension, replicate runs

## C#C[C@]1(OC(=O)CCC)CC[C@H]2[C@@H]3CCC4=CC(=O)CC[C@@H]4[C@H]3CC[C@@]21CC [LB, Levonorgestrel Butanoate]
[1]
  time to return to ovulation: increases with increasing particle size of LB in the formulation and in many cases exceeding six months
[2]; 15 minutes
  Assay Results - Concentration of LB, Average: 20.03 mg/mL
  Particle Size D50: 6.3 μm
  Particle Size VMD: 8.1 μm
  particle size D10: 1.4 μm
  particle size D90: 17.1 μm
[2]; 30 minutes
  Assay Results - Concentration of LB, Average: 20.00 mg/mL
  Particle Size D50: 6.3 μm
  Particle Size VMD: 8.1 μm
  particle size D10: 1.4 μm
  particle size D90: 17.2 μm
[3]; [5]
  particle size D10: 5.3 μm and 5.1 μm and 4.3 μm
  particle size D90: 89.5 μm and 62.2 μm and 65.0 μm
  particle size Mean: 38.6 μm and 30.7 μm and 29.9 μm
  particle size Median: 23.1 μm and 22.7 μm and 18.6 μm
[3]; [6]
  particle size D10: 8.3 μm and 8.2 μm (2×)
  particle size D90: 24.7 μm and 24.8 μm (2×)
  particle size Median: 15.8 μm
[3]; [7]
  particle size D10: 5.4 μm (2×) and 4.3 μm
  particle size D90: 47.3 μm and 50.9 μm and 54.9 μm
  particle size Mean: 23.2 μm and 25.2 μm and 26.9 μm
  particle size Median: 18.0 μm and 18.4 μm and 21.0 μm
[4]
  suppression of ovulation, duration: 5-6 months
